Reference: ChEMBL document CHEMBL1201862, “PubChem BioAssay data set” (2004)
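How tested: cells in 96-well plates exposed to compound for 48 hours at five concentrations. Abbreviation: GI50, concentration required for 50% inhibition of growth.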 Active and inactive are the calls of the source. No stated cut-off is given here; in the data, active = GI50 up to about 1.1 µM and inactive = higher.

Legend:
Test in all cases: inhibition of tumour cell growth, NCI panel, 48 h
[1] = tested on: UACC-62
[2] = tested on: ACHN
[3] = tested on: SR
[4] = tested on: SF-539
[5] = tested on: HOP-92
[6] = tested on: OVCAR-5
[7] = tested on: OVCAR-8
[8] = tested on: SNB-19
[9] = tested on: CAKI-1
[10] = tested on: CCRF-CEM
[11] = tested on: T47D
[12] = tested on: SK-MEL-2
[13] = tested on: PC-3
[14] = tested on: NCI/ADR-RES
[15] = tested on: UO-31
[16] = tested on: MDA-N
[17] = tested on: A498
[18] = tested on: MOLT-4
[19] = tested on: SNB-75

Structure (SMILES): COC(=O)C1=C(C)NC(C)=C(C(=O)OC)C1c1cccc(NO)c1
- GI50 [1]: 17.5 µM (inactive)
- GI50 [2]: 12.8 µM (inactive)
- GI50 [3]: > 100 µM (inactive)
- GI50 [4]: 17.4 µM (inactive)
- GI50 [5]: 11.5 µM (inactive)
- GI50 [6]: 16.4 µM (inactive)
- GI50 [7]: 16.4 µM (inactive)
- GI50 [8]: > 100 µM (inactive)
- GI50 [9]: 13.2 µM (inactive)
- GI50 [10]: 3.79 µM (inactive)
- GI50 [11]: 13.5 µM (inactive)
- GI50 [12]: 15.2 µM (inactive)
- GI50 [13]: 15 µM (inactive)
- GI50 [14]: 20 µM (inactive)
- GI50 [15]: 11.5 µM (inactive)
- GI50 [16]: 15.1 µM (inactive)
- GI50 [17]: > 100 µM (inactive)

Structure (SMILES): CCCCC[C@H]1CC=CC(=O)O1
- GI50 [1]: 10.5 µM (inactive)
- GI50 [2]: 7.13 µM (inactive)
- GI50 [3]: 2.03 µM (inactive)
- GI50 [4]: 1.56 µM (inactive)
- GI50 [5]: 10.4 µM (inactive)
- GI50 [6]: 24 µM (inactive)
- GI50 [7]: 8.28 µM (inactive)
- GI50 [18]: 2.34 µM (inactive)
- GI50 [8]: 10.1 µM (inactive)
- GI50 [9]: 2.55 µM (inactive)
- GI50 [10]: 4.74 µM (inactive)
- GI50 [11]: 4.55 µM (inactive)
- GI50 [12]: 5.43 µM (inactive)
- GI50 [13]: 7.93 µM (inactive)
- GI50 [14]: 5.92 µM (inactive)
- GI50 [15]: 11 µM (inactive)
- GI50 [16]: 5.02 µM (inactive)
- GI50 [17]: 1.82 µM (inactive)

Structure (SMILES): CN(Cc1cnc2nc(N)nc(N)c2n1)c1ccc(C(=O)N[C@@H](CCS(=O)(=O)O)C(=O)O)cc1
- GI50 [1]: 0.248 µM (active)
- GI50 [2]: 0.225 µM (active)
- GI50 [3]: 0.0755 µM (active)
- GI50 [4]: 0.614 µM (active)
- GI50 [5]: > 100 µM (inactive)
- GI50 [7]: 21.8 µM (inactive)
- GI50 [18]: 0.745 µM (active)
- GI50 [8]: 0.582 µM (active)
- GI50 [9]: > 100 µM (inactive)
- GI50 [10]: > 100 µM (inactive)
- GI50 [11]: > 100 µM (inactive)
- GI50 [12]: > 100 µM (inactive)
- GI50 [13]: 0.0459 µM (active)
- GI50 [14]: 1.18 µM (inactive)
- GI50 [15]: 0.698 µM (active)
- GI50 [16]: 0.057 µM (active)

Structure (SMILES): O=C1C(Cl)=C(N2CCSCC2)C(=O)c2c(O)ccc(O)c21
- GI50 [1]: 0.525 µM (active)
- GI50 [2]: 0.424 µM (active)
- GI50 [3]: 0.292 µM (active)
- GI50 [5]: 1.02 µM (active)
- GI50 [18]: 0.641 µM (active)
- GI50 [9]: 0.528 µM (active)
- GI50 [11]: 0.662 µM (active)
- GI50 [19]: 1 µM (active)
- GI50 [12]: 0.204 µM (active)
- GI50 [13]: 0.1 µM (active)
- GI50 [14]: 0.1 µM (active)
- GI50 [15]: 0.569 µM (active)
- GI50 [16]: 0.33 µM (active)

Structure (SMILES): CC(C)(O)C1CC[C@]2(C)CC[C@]3(C)[C@H](CC[C@@H]4[C@@]5(C)CC[C@H](O)C(C)(C)[C@@H]5CC[C@]43C)[C@@H]12 (stereo not given in full)
- GI50 [1]: 39 µM (inactive)
- GI50 [2]: 22.1 µM (inactive)
- GI50 [3]: 30.5 µM (inactive)
- GI50 [4]: 23.4 µM (inactive)
- GI50 [5]: 14.5 µM (inactive)
- GI50 [6]: 32.5 µM (inactive)
- GI50 [7]: 32.7 µM (inactive)
- GI50 [18]: 73.1 µM (inactive)
- GI50 [8]: 68.7 µM (inactive)
- GI50 [9]: 22.1 µM (inactive)
- GI50 [10]: 74.1 µM (inactive)
- GI50 [11]: 23.1 µM (inactive)
- GI50 [19]: 21.6 µM (inactive)
- GI50 [12]: 20.5 µM (inactive)
- GI50 [13]: 30.3 µM (inactive)
- GI50 [14]: 29.4 µM (inactive)
- GI50 [15]: 58.2 µM (inactive)
- GI50 [16]: 47.8 µM (inactive)

Structure (SMILES): C[n+]1c(-c2ccc(/C=N/Nc3ccnc(N/N=C/c4ccc(-c5cn6ccccc6[n+]5C)cc4)n3)cc2)cn2ccccc21
- GI50 [2]: 25.3 µM (inactive)
- GI50 [3]: 59.4 µM (inactive)
- GI50 [4]: 20 µM (inactive)
- GI50 [6]: 60.4 µM (inactive)
- GI50 [7]: 82.4 µM (inactive)
- GI50 [18]: > 100 µM (inactive)
- GI50 [8]: 42.8 µM (inactive)
- GI50 [11]: 54.8 µM (inactive)
- GI50 [19]: 34.7 µM (inactive)
- GI50 [13]: > 100 µM (inactive)
- GI50 [14]: 31.9 µM (inactive)
- GI50 [15]: 21.2 µM (inactive)
- GI50 [16]: 28.9 µM (inactive)

Structure (SMILES): O=C(NC1=C(Cl)C(=O)c2ccccc2C1=O)c1ccccc1
- GI50 [1]: 24.1 µM (inactive)
- GI50 [2]: 20.8 µM (inactive)
- GI50 [3]: 38.4 µM (inactive)
- GI50 [4]: 50.6 µM (inactive)
- GI50 [5]: 24.9 µM (inactive)
- GI50 [6]: 47.1 µM (inactive)
- GI50 [7]: 43.2 µM (inactive)
- GI50 [18]: 20.1 µM (inactive)
- GI50 [8]: 54.2 µM (inactive)
- GI50 [10]: 30.9 µM (inactive)
- GI50 [11]: 22.1 µM (inactive)
- GI50 [19]: 65 µM (inactive)
- GI50 [13]: 24.9 µM (inactive)
- GI50 [14]: 18.5 µM (inactive)
- GI50 [16]: 5.04 µM (inactive)
